# Test results as given in patent EP0643699B1, “6-(2-HYDROXYETHYLAMINOALKYL)-5,11-DIOXO-5,6-DIHYDRO-11H- INDENO[1,2-C]ISOQUINOLINES AND THEIR USE AS ANTINEOPLASTIC AGENTS” (priority 1991, dated 1993).
# Read-outs that look alike come from different tables or passages of the source. Marks after values point to notes of the source that are not given here.
# Legend:
# L1210/MX = assay: Cytotoxicity: incorporation of [14C]amino-acid mixture, variant resistant to mitoxantron; type: cell-based; details: Mus musculus; Tumor L1210/MX; Precursor [U-14C]Amino-acid mixture
# Text: (§1) The antineoplastic activity of the compounds of the invention has been investigated testing the compounds of the chemical group "in vivo" against experimental rodent tumors such as the solid form of Ehrlich tumour (STE, originally mammary adenocarcinoma), tumor HK (also transplantable originally mammary adenocarcinoma), Krebs' ascites tumour (Kr2), S37 ascites sarcoma, Nemeth-Keller lymphoma (NK), all maintained in mice H, Gardner lymphosarcoma (LsG, maintained in mice C3H), P388 and/or L1210 leukemia (maintained in DBA2 mice), B16 metastasizing melanocarcinoma (maintained in C57B1/6 mice) and Yoshida ascites reticulosarcoma (Y, maintained in Wistar rats) in experiments according to Jelinek, V. [Neoplasma 12, 469 (1965); ibid 7, 146 (1960)] and in "in vitro" experiments using radioactive precursors of nucleic acids and proteins according to Miko, M. et al. [Cancer Res 39, 4242 (1979); Neoplasma 26, 449 (1979); ibid 16, 161 (1969)] with minor modifications [Mattern, J.: Studies on the Drug Sensitivity of Short Term Cultured Tumour Cell Suspensions. In "Human Tumours in Short Term Culture" (Dendy, P.P. ed.), p.301, Academic Press 1976]. The Cox's proportional-hazards model was used for survival evaluation and optimal dose calculation according to Carter, V.H. et al. [cf Cancer Res. 42, 2963 (1982)]. […]
# Sa37 sarcoma = assay: Antitumour activity in S37 ascites sarcoma bearing mice (tumour weight, total ascitocrit, survival); type: in vivo, mice H
# Text: The antineoplastic activity of the compounds of the invention has been investigated testing the compounds of the chemical group "in vivo" against experimental rodent tumors such as the solid form of Ehrlich tumour (STE, originally mammary adenocarcinoma), tumor HK (also transplantable originally mammary adenocarcinoma), Krebs' ascites tumour (Kr2), S37 ascites sarcoma, Nemeth-Keller lymphoma (NK), all maintained in mice H, Gardner lymphosarcoma (LsG, maintained in mice C3H), P388 and/or L1210 leukemia (maintained in DBA2 mice), B16 metastasizing melanocarcinoma (maintained in C57B1/6 mice) and Yoshida ascites reticulosarcoma (Y, maintained in Wistar rats) in experiments according to Jelinek, V. [Neoplasma 12, 469 (1965); ibid 7, 146 (1960)] and in "in vitro" experiments using radioactive precursors of nucleic acids and proteins according to Miko, M. et al. [Cancer Res 39, 4242 (1979); Neoplasma 26, 449 (1979); ibid 16, 161 (1969)] with minor modifications [Mattern, J.: Studies on the Drug Sensitivity of Short Term Cultured Tumour Cell Suspensions. In "Human Tumours in Short Term Culture" (Dendy, P.P. ed.), p.301, Academic Press 1976]. The Cox's proportional-hazards model was used for survival evaluation and optimal dose calculation according to Carter, V.H. et al. [cf Cancer Res. 42, 2963 (1982)].
# Eighty female mice H weighing approximately 20 g were divided into four groups: one control group and three experimental groups of 20 animal each. A lethal dose of the Sa37 sarcoma ascitic fluid was implanted intraperitoneally to all the animals. The animals of test groups were treated using the compound suspended in water. The suspension contained the substance in such a concentration that dose 0.6, 0.4 and/or 0.2ml of the suspension p.o. was equal to dose 240, 160 and/or 80 mg/kg p.o., respectively. The drug was administered to the experimental animals once, a day after tumour transplantation. On the tenth day after the tumour transplantation, half of the animals in each group were killed by ether anaesthesia, ascites were emptied after laparotomia and the tumour weight was assessed in all animals from the weight difference before and after laparotomia and ascites removing. In ascites fluid the volume of tumour cell fraction was determined. The remaining animals were left to monitor the time of death and survival time was followed. […] It was also observed that the treated animals survived longer than untreated control animals. […] The results of the experiment are summarized in the following table: Antitumour activity of 6-[2-(2-hydroxyethyl)aminoethyl]5,11-dioxo-5,6-dihydro-11H-indeno[1,2-c]isoquinoline (the substance I, X=2) in S37 sarcoma bearing mice.
# In an analogous experiment carried out on the animals with implanted Sa37 sarcoma the substance I (X=2) was administered in seven daily doses, and the substance I (X=3) in four days. The results of the experiment are summarized in the following table: Antitumour activity of 6-[2-(2-hydroxyethyl)aminoethyl]5,11-dioxo-5,6-dihydro-11H-indeno[1,2-c]isoquinoline (the substance I, X=2) and 6-[3-(2-hydroxyethyl)aminopropyl]5,11-dioxo-5,6-dihydro-11H-indeno[1,2-c]isoquinoline (the substance I, X=3) in S37 bearing mice.
# In an experiment carried out on the animals with implanted Sa37 sarcoma the substance I (X=0) was administered in eight daily doses (analogously as in example 6).
# L1210 = assay: Optimal dose (ED 95) in L1210 leukemia bearing mice; type: in vivo; details: L1210 bearing mice DBA2
# Text: as §1
# [1] = 10 mg/kg p.o., seven daily doses
# [2] = 20 mg/kg p.o., seven daily doses
# [3] = 30 mg/kg p.o., seven daily doses
# [4] = 80 mg/kg p.o. once, a day after tumour transplantation, assessed on the tenth day
# [5] = 160 mg/kg p.o. once, a day after tumour transplantation, assessed on the tenth day
# [6] = 240 mg/kg p.o. once, a day after tumour transplantation, assessed on the tenth day
smiles,measurement,setting,value
"O=C1c2ccccc2-c2c1c1ccccc1c(=O)n2CCNCCO [I (X=2), 6-[2-(2-hydroxyethyl)aminoethyl]-5,11-dioxo-5,6-dihydro-11H-indeno[1,2-c]isoquinoline]",IC50,L1210/MX,119 µM
same,"Survival time (T/C, %)",Sa37 sarcoma; [1],129%
same,"Total ascitocrit (T/C, %)",Sa37 sarcoma; [1],73^b) %
same,"Tumour weight (T/C, %)",Sa37 sarcoma; [1],66^b) %
same,"Survival time (T/C, %)",Sa37 sarcoma; [2],129^a) %
same,"Total ascitocrit (T/C, %)",Sa37 sarcoma; [2],73^a) %
same,"Tumour weight (T/C, %)",Sa37 sarcoma; [2],64^b) %
same,"Survival time (T/C, %)",Sa37 sarcoma; [3],86%
same,"Total ascitocrit (T/C, %)",Sa37 sarcoma; [3],40^b) %
same,"Tumour weight (T/C, %)",Sa37 sarcoma; [3],32^b) %
same,"Survival time (T/C, %)","Sa37 sarcoma; 80 mg/kg p.o. once, a day after tumour transplantation",107%
same,"Total ascitocrit (T/C, %)",Sa37 sarcoma; [4],64^c) %
same,"Tumour weight (T/C, %)",Sa37 sarcoma; [4],61^c) %
same,"Survival time (T/C, %)","Sa37 sarcoma; 160 mg/kg p.o. once, a day after tumour transplantation",111%
same,"Total ascitocrit (T/C, %)",Sa37 sarcoma; [5],65^c) %
same,"Tumour weight (T/C, %)",Sa37 sarcoma; [5],59^c) %
same,"Survival time (T/C, %)","Sa37 sarcoma; 240 mg/kg p.o. once, a day after tumour transplantation",119^b) %
same,"Total ascitocrit (T/C, %)",Sa37 sarcoma; [6],47^c) %
same,"Tumour weight (T/C, %)",Sa37 sarcoma; [6],42^c) %
same,ED95,"L1210; Mus musculus, po, read-out: ED 95",225 mg/kg
same,ED95,"L1210; p.o., dose per body surface",675 mg/m^2
